Several values for one entry are separate records, joined by “and”; a condition that tells them apart may be missing. Equal entries are not always repeated.
What was measured:
[1] = for vapor or sublimation pressure: Closed cell (Static) method; for Normal melting temperature: DTA
[2] = Molar enthalpy of transition or fusion; details: Crystal; DSC
[3] = molar heat capacity at constant pressure; details: 101.33 kPa, DSC

CCNCCO [2-(ethylamino)ethanol]
Details	molar heat capacity at constant pressure [J/K/mol]	vapor or sublimation pressure
[1], 238.05 K, Crystal	–	5e-05 kPa and 4.9e-05 kPa and 4.8e-05 kPa
[1], 243.07 K, Crystal	–	0.000113 kPa and 0.000112 kPa
[1], 243.07 K, Metastable liquid	–	0.000222 kPa and 0.000223 kPa and 0.000221 kPa
[1], 248.11 K, Metastable liquid	–	0.000424 kPa and 0.000423 kPa
[1], 248.13 K, Crystal	–	0.000251 kPa and 0.000252 kPa
[1], 248.14 K, Crystal	–	0.000253 kPa
[1], 253.13 K, Crystal	–	0.000545 kPa and 0.000544 kPa and 0.000546 kPa
[1], 253.13 K, Metastable liquid	–	0.000783 kPa and 0.000784 kPa and 0.000781 kPa
[1], 258.13 K, Crystal	–	0.001146 kPa
[1], 258.13 K, Metastable liquid	–	0.001403 kPa and 0.001401 kPa
[1], 258.14 K, Crystal	–	0.001142 kPa and 0.001139 kPa
[1], 258.14 K, Metastable liquid	–	0.001403 kPa
[1], 263.13 K, Metastable liquid	–	0.002453 kPa
[1], 263.14 K, Crystal	–	0.002334 kPa and 0.002326 kPa and 0.00232 kPa
[1], 263.14 K, Metastable liquid	–	0.002454 kPa
[1], 268.14 K, Liquid	–	0.004201 kPa and 0.004205 kPa and 0.004206 kPa
[1], 273.14 K, Liquid	–	0.007045 kPa and 0.007039 kPa and 0.007052 kPa
[1], 278.14 K, Liquid	–	0.01158 kPa
[1], 283.14 K, Liquid	–	0.01862 kPa and 0.01863 kPa
[1], 288.14 K, Liquid	–	0.02935 kPa and 0.02936 kPa and 0.02934 kPa
[1], 293.13 K, Liquid	–	0.04545 kPa and 0.04543 kPa
[1], 298.14 K, Liquid	–	0.06913 kPa and 0.06915 kPa
[1], 303.13 K, Liquid	–	0.1034 kPa
[1], 303.14 K, Liquid	–	0.1035 kPa
[1], 308.14 K, Liquid	–	0.1525 kPa
[3], 265 K, Liquid	215.4	–
[3], 270 K, Liquid	217.1	–
[3], 275 K, Liquid	218.8	–
[3], 280 K, Liquid	220.3	–
[3], 285 K, Liquid	222	–
[3], 290 K, Liquid	223.6	–
[3], 295 K, Liquid	225.5	–
[3], 300 K, Liquid	227.7	–
[3], 305 K, Liquid	229.9	–
[3], 310 K, Liquid	232.1	–
[3], 315 K, Liquid	234.6	–
[3], 320 K, Liquid	237	–
[3], 325 K, Liquid	239.5	–
[3], 330 K, Liquid	242	–
[3], 335 K, Liquid	244.4	–
[3], 340 K, Liquid	247	–
[3], 345 K, Liquid	249.9	–
[3], 350 K, Liquid	252.9	–
[3], 355 K, Liquid	255.9	–

Details	Normal melting temperature [°C]
[1], Crystal	-9.2

Details	Molar enthalpy of transition or fusion [kcal/mol]
[2]	3.94

CC(C)NCCO [2-isopropylaminoethanol]
Details	molar heat capacity at constant pressure [J/K/mol]	vapor or sublimation pressure
[1], 248.13 K, Metastable liquid	–	0.000252 kPa and 0.000251 kPa
[1], 253.14 K, Metastable liquid	–	0.000472 kPa
[1], 253.15 K, Crystal	–	0.000258 kPa and 0.000257 kPa and 0.000254 kPa
[1], 253.15 K, Metastable liquid	–	0.000471 kPa and 0.000472 kPa
[1], 258.14 K, Crystal	–	0.000482 kPa and 0.00048 kPa and 0.000479 kPa
[1], 258.15 K, Metastable liquid	–	0.000864 kPa
[1], 263.15 K, Crystal	–	0.000926 kPa and 0.000923 kPa and 0.000921 kPa
[1], 263.15 K, Metastable liquid	–	0.001546 kPa and 0.001544 kPa
[1], 268.14 K, Crystal	–	0.00171 kPa and 0.001709 kPa
[1], 268.14 K, Metastable liquid	–	0.002688 kPa
[1], 273.14 K, Crystal	–	0.00318 kPa and 0.003182 kPa and 0.003174 kPa
[1], 273.14 K, Metastable liquid	–	0.004591 kPa
[1], 273.15 K, Metastable liquid	–	0.004589 kPa and 0.00459 kPa
[1], 278.14 K, Crystal	–	0.005875 kPa and 0.005872 kPa and 0.00587 kPa
[1], 278.14 K, Metastable liquid	–	0.007669 kPa and 0.007676 kPa and 0.007665 kPa
[1], 283.14 K, Crystal	–	0.01065 kPa and 0.01066 kPa and 0.01068 kPa
[1], 283.14 K, Metastable liquid	–	0.01257 kPa
[1], 288.14 K, Crystal	–	0.01909 kPa and 0.01911 kPa
[1], 288.15 K, Crystal	–	0.0191 kPa
[1], 288.15 K, Metastable liquid	–	0.0202 kPa
[1], 293.14 K, Liquid	–	0.03179 kPa
[1], 298.11 K, Liquid	–	0.04899 kPa
[1], 298.12 K, Liquid	–	0.0492 kPa
[1], 298.14 K, Liquid	–	0.04914 kPa and 0.04915 kPa
[1], 298.17 K, Liquid	–	0.04928 kPa
[1], 303.04 K, Liquid	–	0.07439 kPa and 0.0744 kPa and 0.07435 kPa
[1], 303.14 K, Liquid	–	0.0747 kPa and 0.07469 kPa and 0.07473 kPa
[1], 308.01 K, Liquid	–	0.1111 kPa
[1], 308.03 K, Liquid	–	0.1112 kPa
[1], 308.04 K, Liquid	–	0.1112 kPa
[1], 308.14 K, Liquid	–	0.1119 kPa
[1], 308.15 K, Liquid	–	0.1119 kPa and 0.1118 kPa
[1], 313 K, Liquid	–	0.164 kPa
[1], 313.01 K, Liquid	–	0.1642 kPa
[1], 317.9 K, Liquid	–	0.2372 kPa and 0.2373 kPa
[1], 322.97 K, Liquid	–	0.3405 kPa
[1], 322.98 K, Liquid	–	0.3407 kPa
[1], 327.95 K, Liquid	–	0.4814 kPa and 0.4815 kPa
[1], 332.99 K, Liquid	–	0.6731 kPa and 0.6728 kPa
[1], 337.93 K, Liquid	–	0.9221 kPa and 0.9223 kPa
[1], 342.94 K, Liquid	–	1.257 kPa
[3], 265 K, Metastable liquid	240.4	–
[3], 270 K, Metastable liquid	243.1	–
[3], 275 K, Metastable liquid	245.8	–
[3], 280 K, Metastable liquid	248.5	–
[3], 285 K, Metastable liquid	251	–
[3], 290 K, Liquid	253.8	–
[3], 295 K, Liquid	256.9	–
[3], 300 K, Liquid	260.1	–
[3], 305 K, Liquid	263.3	–
[3], 310 K, Liquid	266.6	–
[3], 315 K, Liquid	270.1	–
[3], 320 K, Liquid	273.5	–
[3], 325 K, Liquid	277.2	–
[3], 330 K, Liquid	280.7	–
[3], 335 K, Liquid	284.3	–
[3], 340 K, Liquid	287.7	–
[3], 345 K, Liquid	291.1	–
[3], 350 K, Liquid	294.9	–
[3], 355 K, Liquid	298.5	–

Details	Normal melting temperature [°C]
[1], Crystal	16

Details	Molar enthalpy of transition or fusion [kcal/mol]
[2]	4.54

CCN(CC)CCO [(diethylamino)ethanol]
Liquid
Details	molar heat capacity at constant pressure [J/K/mol]	vapor or sublimation pressure
[1], 273.64 K	–	0.03488 kPa and 0.0349 kPa and 0.03489 kPa
[1], 278.14 K	–	0.05131 kPa and 0.05133 kPa
[1], 278.15 K	–	0.05134 kPa
[1], 283.14 K	–	0.07733 kPa
[1], 283.15 K	–	0.07737 kPa
[1], 288.15 K	–	0.1146 kPa
[1], 293.14 K	–	0.167 kPa and 0.1669 kPa
[1], 298.15 K	–	0.2393 kPa
[1], 303.14 K	–	0.3378 kPa and 0.3379 kPa
[1], 303.15 K	–	0.338 kPa
[1], 308.15 K	–	0.4708 kPa and 0.4709 kPa
[3], 265 K	260.6	–
[3], 270 K	263.9	–
[3], 275 K	267.1	–
[3], 280 K	270	–
[3], 285 K	272.8	–
[3], 290 K	275.6	–
[3], 295 K	278.7	–
[3], 300 K	281.8	–
[3], 305 K	284.7	–
[3], 310 K	287.6	–
[3], 315 K	290.5	–
[3], 320 K	293.2	–
[3], 325 K	295.8	–
[3], 330 K	298.2	–
[3], 335 K	300.4	–
[3], 340 K	302.7	–
[3], 345 K	305.1	–
[3], 350 K	307.7	–
[3], 355 K	309.9	–

Reference: the NIST ThermoML archive (doi:10.1016/j.fluid.2018.05.032)
